From US20260232682A1, “GSPT1 DEGRADER COMPOUNDS” (Captor Therapeutics S.A., priority 2023, published 2026) come the findings set out here.

One test concerns GSPT1-HiBiT HEK293 cells. Kind of test: Cell Viability-CTG assay accompanying the Nano-Glo HiBiT assay. To be noted: 6 hours treatment, viability of GSPT1-HiBiT HEK293 cells. Format: cell-based. The procedure: In parallel, the Cell Viability-CTG assay was performed to ensure that the potential decrease of the luminescent signal observed in the Nano-Glo HiBiT assay is a result of protein degradation and not a result of decreasing cell viability. For CTG assay accompanying the Nano-Glo HiBiT assay, cells were cultured, seeded and treated as described above. After 6 hours of incubation (37° C., 5% CO2), plates were removed from the incubator and let to equilibrate to RT. Luminescent signal detection was conducted using the CellTiter-Glo Lumiescent Cell Viability Assay (Promega, cat. nr G7573). 10 μL of the Cell Titer Glo reagent was added per well, plates were shaken to facilitate lysis (460 rpm, 4 min, RT) and incubated in the dark for the following 8 min. Luminescence was read using the CLARIOstar multimode plate reader (BMG LABTECH). The raw data (the relative luminescence unit values, RLU) were uploaded under the relevant protocol and analysed in CDDVault data management platform, in a manner similar to the description above. The Mean Minimum values were calculated in CDDVault using non-linear regression and appropriate equations.
A general note: The HiBiT peptide binds its large partner to form an active luciferase.

Test [1] concerns the target [GSPT1]-[compound of formula (I)]-[CRBN/DDB1] complex (Homo sapiens, UniProt P15170+Q96SW2). Kind of test: HTRF ternary complex assay (GSPT1). Format: binding. To be noted: read-out: HTRF ternary complex Average pEC50 by molecule (converted). The essentials: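 Compounds in dose-response were incubated 180 min at 25 °C with 48 nM GSPT1 and 52.8 nM 6×His-CRBN/DDB1, plus Streptavidin-Eu cryptate and anti-6×His-d2, in buffer with 1 mM DTT and 0.5% DMSO. TR-FRET (665/620) was normalized to DMSO background and fitted with a Hill slope model for EC50/pEC50.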

In test [2] the target is T1, GSPT1-HiBiT protein in GSPT1-HiBiT HEK293 cells (Homo sapiens, UniProt P15170+Q96SW2).
T1 construct: endogenous in cells; host or cells: HEK293 (CRISPR/Cas9 knock-in of HiBiT at the GSPT1 locus)
Kind of test: GSPT1 degradation assay using HiBiT system (Nano-Glo HiBiT lytic assay). It is filed as cell-based. To be noted: 6 hours treatment; for DC50: read-out: HiBiT lytic assay Geomean absolute DC50. From the text: The effect of selected compounds of the invention on GSPT1 protein levels was investigated, using the GSPT1-HiBiT HEK293 cell line and the Nano-Glo HiBiT degradation assay protocol below.
GSPT1-HiBiT HEK293 cells were generated in-house using the HEK293 parental cells (ATCC, cat. no 70016364) and the CRISPR/Cas9 system. HEK293 cells were transformed with pSpCas9-BB-2A-Puro v2.0 plasmid carrying gRNA targeting the C-terminus of GSPT1 and ssODN template containing the HiBiT tag sequence with flanking homology sequences. Neon Transfection System (Thermo Fisher Scientific) was used for electroporation. HEK293 GSPT1-HiBiT cells were cultured with DMEM Glutamax (Gibco) supplemented with 10% heat inactivated FBS (Gibco). After transfection the culture medium was changed to DMEM Glutamax with 10% heat-inactivated FBS and 1% Penicillin-Streptomycin (Biowest) supplemented with Puromycin (2 μg/ml; Invivogen) for clonal selection. In order to isolate single cell clones for further validation and analysis, limiting dilution cloning in 96-well plates was performed. When the single clones reached confluency, HiBiT Lytic Assay (Promega) was performed in order to identify HiBiT positive clones. The clone selected for further studies was verified and validated using genotyping and HiBiT Blotting (Promega).
Cells were maintained in DMEM Glutamax medium, supplemented with 1% penicillin/streptomycin and 10% Fetal Bovine Serum (FBS) at 37° C., 5% CO2. Compounds were stored frozen as 20 mM DMSO stocks.
For the Nano-Glo HiBiT assay, cells were seeded onto 384-well white solid bottom plate at 2×10^3 cells/well in 40 μL using the Agilent BioTek MultiFlo FX Multimode Dispenser and incubated overnight. Following overnight incubation (37° C., 5% CO2) cells were treated with the test compounds and vehicle only (DMSO) control using the Echo 555 Liquid Handler. Twelve data-point compound titration curve with concentrations ranging from 10 μM to 0.03 nM was used. Final DMSO concentration was kept constant at 0.25% v/v across the assay plate. After 6 hours of incubation (37° C., 5% CO2), plates were removed from the incubator and let to equilibrate to RT. Luminescent signal detection was conducted using the Nano-Glo HiBiT Lytic Detection System (Promega, cat. nr N3050). Nano-Glo HiBiT Lytic Reagent was prepared freshly by diluting the LgBiT Protein (1:100 vol/vol) and the Nano-Glo HiBiT Lytic Substrate (1:50 vol/vol) in the relevant volume of the Nano-Glo HiBiT Lytic Buffer. 40 μL of the HiBiT Lytic Reagent was added per well, plates were shaken to facilitate lysis (350 rpm, 5 min, RT) and incubated in the dark for the following 10 min. Luminescence was read using the PHERAstar multimode plate reader (BMG LABTECH). The raw data (the relative luminescence unit values, RLU) were uploaded under the relevant protocol and analysed in CDDVault data management platform. Luminescence (RLU) values were normalized to the controls, and reported absolute DC50 values and Dmax values were calculated in CDDVault using non-linear regression and appropriate equations.

Broadly, the Dmax is the largest share of the target that was removed. Broadly, the DC50 is the concentration giving 50% degradation.

SMILES strings stand for the structures. Some results are limits rather than exact numbers.

T1 sequence (P15170 whole entry): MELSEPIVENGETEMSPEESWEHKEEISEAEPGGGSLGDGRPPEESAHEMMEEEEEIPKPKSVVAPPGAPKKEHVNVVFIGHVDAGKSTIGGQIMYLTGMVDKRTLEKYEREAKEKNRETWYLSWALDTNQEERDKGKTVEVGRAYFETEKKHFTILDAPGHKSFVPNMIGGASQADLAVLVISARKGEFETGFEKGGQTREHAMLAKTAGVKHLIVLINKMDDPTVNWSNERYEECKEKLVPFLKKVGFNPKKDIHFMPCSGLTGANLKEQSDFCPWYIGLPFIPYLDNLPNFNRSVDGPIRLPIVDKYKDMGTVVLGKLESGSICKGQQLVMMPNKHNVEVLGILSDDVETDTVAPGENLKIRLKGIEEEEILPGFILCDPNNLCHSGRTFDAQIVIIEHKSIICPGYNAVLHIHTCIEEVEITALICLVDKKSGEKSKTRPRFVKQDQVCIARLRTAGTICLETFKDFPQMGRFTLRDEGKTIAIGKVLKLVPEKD
T1 sequence (Q96SW2 whole entry): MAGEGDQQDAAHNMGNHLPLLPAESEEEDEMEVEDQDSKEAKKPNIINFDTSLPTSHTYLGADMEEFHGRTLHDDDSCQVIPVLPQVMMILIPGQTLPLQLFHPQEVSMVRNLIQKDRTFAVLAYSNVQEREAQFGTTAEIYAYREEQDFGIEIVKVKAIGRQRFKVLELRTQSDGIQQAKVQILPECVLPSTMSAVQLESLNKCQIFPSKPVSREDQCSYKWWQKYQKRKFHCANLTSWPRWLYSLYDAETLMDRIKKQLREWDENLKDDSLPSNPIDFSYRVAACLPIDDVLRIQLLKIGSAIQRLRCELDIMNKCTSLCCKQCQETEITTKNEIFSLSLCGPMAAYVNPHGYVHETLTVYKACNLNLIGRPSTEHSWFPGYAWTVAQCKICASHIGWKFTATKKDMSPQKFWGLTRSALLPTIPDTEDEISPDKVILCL
T1 sequence (Q16531 whole entry partner): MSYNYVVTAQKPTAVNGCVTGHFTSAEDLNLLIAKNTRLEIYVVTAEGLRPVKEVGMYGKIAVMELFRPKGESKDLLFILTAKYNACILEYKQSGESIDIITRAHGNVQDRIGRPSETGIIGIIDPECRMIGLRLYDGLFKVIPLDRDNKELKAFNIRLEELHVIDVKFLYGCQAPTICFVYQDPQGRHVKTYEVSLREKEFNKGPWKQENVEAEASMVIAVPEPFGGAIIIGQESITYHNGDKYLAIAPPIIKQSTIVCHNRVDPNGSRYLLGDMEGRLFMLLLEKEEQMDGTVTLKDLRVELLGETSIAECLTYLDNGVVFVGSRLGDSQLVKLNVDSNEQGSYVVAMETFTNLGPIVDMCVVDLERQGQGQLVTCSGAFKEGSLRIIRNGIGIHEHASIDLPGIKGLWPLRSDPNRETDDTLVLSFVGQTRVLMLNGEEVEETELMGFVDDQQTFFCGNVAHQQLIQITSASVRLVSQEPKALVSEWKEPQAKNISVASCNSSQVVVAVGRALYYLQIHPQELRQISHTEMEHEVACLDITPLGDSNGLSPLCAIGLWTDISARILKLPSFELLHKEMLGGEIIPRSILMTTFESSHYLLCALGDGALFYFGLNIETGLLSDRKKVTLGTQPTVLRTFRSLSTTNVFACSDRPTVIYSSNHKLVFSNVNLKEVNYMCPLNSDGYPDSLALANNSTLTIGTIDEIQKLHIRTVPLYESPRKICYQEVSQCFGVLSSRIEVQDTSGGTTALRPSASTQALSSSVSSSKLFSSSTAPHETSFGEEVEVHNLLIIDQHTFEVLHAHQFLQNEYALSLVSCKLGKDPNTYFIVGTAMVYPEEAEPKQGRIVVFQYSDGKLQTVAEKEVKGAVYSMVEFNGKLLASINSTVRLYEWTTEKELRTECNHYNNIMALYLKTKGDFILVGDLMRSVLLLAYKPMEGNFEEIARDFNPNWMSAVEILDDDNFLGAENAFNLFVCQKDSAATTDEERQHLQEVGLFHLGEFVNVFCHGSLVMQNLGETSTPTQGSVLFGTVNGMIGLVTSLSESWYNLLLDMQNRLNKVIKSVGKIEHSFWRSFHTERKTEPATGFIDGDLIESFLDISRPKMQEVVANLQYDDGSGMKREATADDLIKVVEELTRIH
[GSPT1]-[compound of formula (I)]-[CRBN/DDB1] complex, sequence (P15170 whole entry): as the sequence (P15170 whole entry) above
[GSPT1]-[compound of formula (I)]-[CRBN/DDB1] complex, sequence (Q96SW2 whole entry): as the sequence (Q96SW2 whole entry) above
[GSPT1]-[compound of formula (I)]-[CRBN/DDB1] complex, sequence (Q16531 whole entry partner): as the sequence (Q16531 whole entry partner) above

As to `Cc1nc2cc(COC(=O)Nc3ccc(-c4ccccc4)nc3)ccc2cc1C1CCC(=O)NC1=O` (centres unmarked) [Compound 20, (3-(2,6-dioxopiperidin-3-yl)-2-methylquinolin-7-yl)methyl (6-phenylpyridin-3-yl)carbamate], the “CTG assay Mean minimum” value in the test with GSPT1-HiBiT HEK293 cells is “++++ (++++≥75% of viability of the HiBiT-GSPT1 HEK293 cells)”. For the same compound, in test [1], the EC50 was < 316 nM. In test [2], the Dmax is ≥ 75% and the DC50 is < 10 nM.

With `COc1cc(C)c(Cl)cc1NC(=O)OCc1ccc2cc(C3CCC(=O)NC3=O)c(C)nc2c1` (centres unmarked) [Compound 21, (3-(2,6-dioxopiperidin-3-yl)-2-methylquinolin-7-yl)methyl (5-chloro-2-methoxy-4-methylphenyl)carbamate], the “CTG assay Mean minimum” value in the test with GSPT1-HiBiT HEK293 cells is “++++ (++++≥75% of viability of the HiBiT-GSPT1 HEK293 cells)”. Moreover, the EC50 in test [1] was 316 to 3160 nM. Besides, in test [2], the Dmax was ≥ 75% and the 50% degradation concentration (DC50) is 10 to 50 nM.

Turning to `Cc1ccc(NC(=O)OCc2cc(F)c3cc(C4CCC(=O)NC4=O)c(C)nc3c2)cc1Cl` (centres unmarked) [Compound 22, (3-(2,6-dioxopiperidin-3-yl)-5-fluoro-2-methylquinolin-7-yl)methyl (3-chloro-4-methylphenyl)carbamate], the “CTG assay Mean minimum” value in the test on GSPT1-HiBiT HEK293 cells is on record as “++++ (++++≥75% of viability of the HiBiT-GSPT1 HEK293 cells)”. In test [1], the EC50 is 316 to 3160 nM. Further, in test [2], the Dmax is ≥ 75% and the 50% degradation concentration (DC50) lay in the range of 10 to 50 nM.

Take `Cc1ccc(NC(=O)NCc2ccc3cc(N4CCC(=O)NC4=O)c(C)nc3c2)cc1Cl` [Compound 27, 1-(3-chloro-4-methylphenyl)-3-((3-(2,4-dioxotetrahydropyrimidin-1(2H)-yl)-2-methylquinolin-7-yl)methyl)urea]: in the test on GSPT1-HiBiT HEK293 cells, the “CTG assay Mean minimum” value is given as “++++ (++++≥75% of viability of the HiBiT-GSPT1 HEK293 cells)”. In test [1], the EC50 is < 316 nM. In test [2], the Dmax is ≥ 75% and the DC50 fell in the range of 50 to 100 nM.

In the case of `Cc1ccc(NC(=O)OCc2ccc3cc(N4CCC(=O)NC4=O)c(C)nc3c2)cc1Cl` [Compound 28, (3-(2,4-dioxotetrahydropyrimidin-1(2H)-yl)-2-methylquinolin-7-yl)methyl (3-chloro-4-methylphenyl)carbamate], the “CTG assay Mean minimum” value in the test with GSPT1-HiBiT HEK293 cells is “++++ (++++≥75% of viability of the HiBiT-GSPT1 HEK293 cells)”. Moreover, the EC50 in test [1] was 316 to 3160 nM. Further, in test [2], the maximal degradation (Dmax) was ≥ 75% and the half-maximal degradation concentration (DC50) was 10 to 50 nM.

On to `Cc1ccc(NC(=O)OCc2ccc3nc(C)c(N4CCC(=O)NC4=O)cc3c2)cc1Cl` [Compound 29, (3-(2,4-dioxotetrahydropyrimidin-1(2H)-yl)-2-methylquinolin-6-yl)methyl (3-chloro-4-methylphenyl)carbamate], for which the “CTG assay Mean minimum” value in the test with GSPT1-HiBiT HEK293 cells is on record as “++++ (++++≥75% of viability of the HiBiT-GSPT1 HEK293 cells)”. Moreover, the EC50 in test [1] was > 3160 nM. For the same compound, in test [2], the Dmax was ≥ 75% and the DC50 lay in the range of 10 to 50 nM.

Consider `Cc1nc2cc(COC(=O)Nc3cc(C(C)(C)C)no3)ccc2cc1C1CCC(=O)NC1=O` (centres unmarked) [Compound 30, (3-(2,6-dioxopiperidin-3-yl)-2-methylquinolin-7-yl)methyl (3-(tert-butyl)isoxazol-5-yl)carbamate], for which the “CTG assay Mean minimum” value in the test with GSPT1-HiBiT HEK293 cells was “++++ (++++≥75% of viability of the HiBiT-GSPT1 HEK293 cells)”. The EC50 in test [1] is 316 to 3160 nM. Besides, in test [2], the Dmax was ≥ 75% and the DC50 was < 10 nM.

Turning to `Cc1ccc(NC(=O)CCc2ccc3cc(C4CCC(=O)NC4=O)c(C)nc3c2)cc1Cl` (centres unmarked) [Compound 32, N-(3-chloro-4-methylphenyl)-3-(3-(2,6-dioxopiperidin-3-yl)-2-methylquinolin-7-yl)propanamide], the “CTG assay Mean minimum” value with GSPT1-HiBiT HEK293 cells is reported as “++++ (++++≥75% of viability of the HiBiT-GSPT1 HEK293 cells)”. The EC50 in test [1] is 316 to 3160 nM. Moreover, in test [2], the greatest degradation seen (Dmax) is ≥ 75% and the DC50 was in the range of 10 to 50 nM.

With `Cc1nc2cc(COC(=O)Nc3csc(-c4ccccc4)c3)ccc2cc1C1CCC(=O)NC1=O` (centres unmarked) [Compound 37, (3-(2,6-dioxopiperidin-3-yl)-2-methylquinolin-7-yl)methyl (5-phenylthiophen-3-yl)carbamate], the “CTG assay Mean minimum” value in the test on GSPT1-HiBiT HEK293 cells is listed as “++++ (++++≥75% of viability of the HiBiT-GSPT1 HEK293 cells)”. Besides, in test [1], the EC50 was 316 to 3160 nM. Further, in test [2], the Dmax was ≥ 75% and the half-maximal degradation concentration (DC50) fell in the range of 10 to 50 nM.

With `Cc1ccc(NC(=O)OCc2ccc3cc([C@@H]4CCC(=O)NC4=O)c(C)nc3c2)cc1Cl` [Compound 38, (3-(2,6-dioxopiperidin-3-yl)-2-methylquinolin-7-yl)methyl (3-chloro-4-methylphenyl)carbamate], the “CTG assay Mean minimum” value with GSPT1-HiBiT HEK293 cells was “++++ (++++≥75% of viability of the HiBiT-GSPT1 HEK293 cells)”. The EC50 in test [1] was 316 to 3160 nM. Besides, in test [2], the Dmax was ≥ 75% and the half-maximal degradation concentration (DC50) fell in the range of 50 to 100 nM.

For `Cc1ccc(NC(=O)OCc2ccc3cc([C@H]4CCC(=O)NC4=O)c(C)nc3c2)cc1Cl` [Compound 39, (3-(2,6-dioxopiperidin-3-yl)-2-methylquinolin-7-yl)methyl (3-chloro-4-methylphenyl)carbamate], the “CTG assay Mean minimum” value with GSPT1-HiBiT HEK293 cells was “++++ (++++≥75% of viability of the HiBiT-GSPT1 HEK293 cells)”. For the same compound, the EC50 in test [1] is 316 to 3160 nM. Besides, in test [2], the Dmax is ≥ 75% and the DC50 is < 10 nM.

Turning to `Cc1nc2cc(COC(=O)Nc3ccc(N4CCOCC4)nc3)ccc2cc1C1CCC(=O)NC1=O` (centres unmarked) [Compound 42, (3-(2,6-dioxopiperidin-3-yl)-2-methylquinolin-7-yl)methyl (6-morpholinopyridin-3-yl)carbamate], the “CTG assay Mean minimum” value in the test with GSPT1-HiBiT HEK293 cells is “++++ (++++≥75% of viability of the HiBiT-GSPT1 HEK293 cells)”. Also, the EC50 in test [1] was 316 to 3160 nM. Moreover, in test [2], the Dmax is ≥ 75% and the DC50 was in the range of 10 to 50 nM.

As for `Cc1ccc(NC(=O)OCc2ccc3c(C)c(C4CCC(=O)NC4=O)c(C)nc3c2)cc1Cl` (centres unmarked) [Compound 44, (3-(2,6-dioxopiperidin-3-yl)-2,4-dimethylquinolin-7-yl)methyl (3-chloro-4-methylphenyl)carbamate], in the test on GSPT1-HiBiT HEK293 cells, the “CTG assay Mean minimum” value is “++++ (++++≥75% of viability of the HiBiT-GSPT1 HEK293 cells)”. Also, the EC50 in test [1] was < 316 nM. In addition, in test [2], the Dmax was ≥ 75% and the half-maximal degradation concentration (DC50) is < 10 nM.

As for `COc1ccc(NC(=O)OCc2ccc3cc(C4CCC(=O)NC4=O)c(C)nc3c2)nn1` (centres unmarked) [Compound 45, (3-(2,6-dioxopiperidin-3-yl)-2-methylquinolin-7-yl)methyl (6-methoxypyridazin-3-yl)carbamate], in the test on GSPT1-HiBiT HEK293 cells, the “CTG assay Mean minimum” value is “++++ (++++≥75% of viability of the HiBiT-GSPT1 HEK293 cells)”. Moreover, the EC50 in test [1] was 316 to 3160 nM. In addition, in test [2], the Dmax is ≥ 75% and the DC50 fell in the range of 10 to 50 nM.
